From US12419888B2, “Methods of treating elevated plasma cholesterol” (INSTITUT DE CARDIOLOGIE DE MONTREAL, priority 2020, dated 2025)

Tested on: LDLR protein levels in HepG2 cells
Experiment: Western blot analysis of relative LDLR protein levels in HepG2 cells after treatment
Type: cell-based, human
Settings: HepG2 cells incubated overnight with compound, 0.2 μM to 20 μM
Experimental: Cell culture, treatments and cell viability assay. For phenotypic screening of PCSK9 modulators and/or LDLR small molecule inducers, human HepG2 cells were incubated overnight in conditioned media containing chemical compounds resuspended in DMSO at concentration ranging from 0.2 μM to 20 μM. […] Following incubation, media have been replaced and cells incubated for 4 h with 100 μL of phenol red-free DMEM containing 0.5 mg/mL of MTT (3-[4,5-dimethylthiazol-2-yl]-2,5-diphenyltetrazolium bromide; thiazolyl blue; catalog no. M5655, Sigma-Aldrich), following manufacturer's instructions.
Western Blot Analysis, Immunocytochemistry and LDLR Activity Assay. Following incubation, cells were washed three times in phosphate-buffered saline (PBS) and lysed in radioimmune precipitation assay buffer (50 mM Tris/HCl, pH 8.0, 1% (v/v) Nonidet P-40, 0.5% sodium deoxycholate, 150 mM NaCl, and 0.1% (v/v) SDS) supplemented with a complete protease inhibitor mixture (catalog no. 11 697 498 001, Roche Applied Science). Proteins were separated by SDS polyacrylamide gel electrophoresis, blotted on nitrocellulose membranes (Bio-Rad), blocked incubated with indicated antibodies as described (Poirier S, et al., Cell Rep, 2015). For immunocytochemistry analysis, cells were permeabilized or not with 0.1% Triton X-100/PBS for 10 min, and incubated with 150 mM glycine, blocked and incubated with indicated primary and secondary antibodies. Immunofluorescence analyses were performed with an Olympus FluoView FV10i confocal microscope (Poirier et al., Cell Rep. 2015; 13(10):2064-2071). For LDLR activity assay, HepG2 cells were incubated overnight without or with a given compound in the presence of 5 μg/ml fluorescent labelled DiI-LDL (Alfa Aesar, Cat. #J65330) and co-stained for LDLR if applicable, as described (Poirier et al., J Biol Chem. 2009; 284(42):28856-28864). Immunofluorescence analyses were performed with an Olympus FluoView FV10i confocal microscope.

Compound | LDLR Fold (relative LDLR protein levels) [Fold]
3-(1,3-benzodioxol-5-yl)-1-[(1S)-1-(6-methylpyridin-2-yl)-1,3,4,9-tetrahydropyrido[3,4-b]indol-2-yl]propan-1-one [Compound 23] | 1.2
CCOc1cccc([C@@H]2CC(c3ccc(C)cc3)=NC3(CCN(C(C)=O)CC3)N2)c1O (stereo in doubt) [Compound 3, 1-[4-(3-ethoxy-2-hydroxyphenyl)-2-(4-methylphenyl)-1,5,9-triazaspiro[5.5]undec-1-en-9-yl]ethan-1-one] | 1.8 ± 0.6
CN1C(=O)c2cc(C(=O)N3CCN(c4ccccc4)CC3)nn2C[C@]1(C)C(=O)NC1CCCCCC1 (stereo in doubt) [Compound 5, N-cycloheptyl-5,6-dimethyl-4-oxo-2-(4-phenylpiperazine-1-carbonyl)-4H,5H,6H,7H-pyrazolo[1,5-a]pyrazine-6-carboxamide] | 0.8 ± 0.0
O=C(NCCc1c[nH]c2ccccc12)c1ccc2c(c1)NC(=O)[C@H]1CCCCN21 (stereo in doubt) [Compound 8, N-[2-(1H-indol-3-yl)ethyl]-6-oxo-5,6a,7,8,9,10-hexahydropyrido[1,2-a]quinoxaline-3-carboxamide] | 1.0 ± 0.2
COc1ccc2cc([C@]3(C)NC(=O)N(CC(=O)N4CCC[C@@H]5CCCC[C@@H]54)C3=O)ccc2c1 (stereo in doubt) [Compound 15, 3-[2-(decahydroquinolin-1-yl)-2-oxoethyl]-5-(6-methoxynaphthalen-2-yl)-5-methylimidazolidine-2,4-dione] | 1.1 ± 0.6
C[C@@]1(c2ccc3ccccc3c2)NC(=O)N(CC(=O)N2CCC[C@@H]3CCCC[C@@H]32)C1=O (stereo in doubt) [Compound 17, 3-[2-(decahydroquinolin-1-yl)-2-oxoethyl]-5-methyl-5-(naphthalen-2-yl)imidazolidine-2,4-dione] | 1.2 ± 0.6
CC[C@@H]1CCCCN1C(=O)CN1C(=O)N[C@@](C)(c2ccc3ccccc3c2)C1=O (stereo in doubt) [Compound 18, 3-[2-(2-ethylpiperidin-1-yl)-2-oxoethyl]-5-methyl-5-(naphthalen-2-yl)imidazolidine-2,4-dione] | 1.4 ± 0.7
C[C@@]1(c2ccc3ccccc3c2)NC(=O)N(CC(=O)N2CCC(Cc3ccccc3)CC2)C1=O (stereo in doubt) [Compound 19, 3-[2-(4-benzylpiperidin-1-yl)-2-oxoethyl]-5-methyl-5-(naphthalen-2-yl)imidazolidine-2,4-dione] | 1.0 ± 0.5
Cc1cccc([C@@H]2c3[nH]c4ccccc4c3CCN2C(=O)CCN2CCCCC2=O)n1 (stereo in doubt) [Compound 20, 1-{3-[1-(6-methylpyridin-2-yl)-1H,2H,3H,4H,9H-pyrido[3,4-b]indol-2-yl]-3-oxopropyl}piperidin-2-one] | 1.4
CC(C)(O)C#Cc1cccc(C(=O)N2CCc3c([nH]c4ccccc34)[C@H]2c2ccccn2)c1 (stereo in doubt) [Compound 21, 2-methyl-4-{3-[1-(pyridin-2-yl)-1H,2H,3H,4H,9H-pyrido[3,4-b]indole-2-carbonyl]phenyl}but-3-yn-2-ol] | 1.0
Cc1ccc2c(CC(=O)N3CCc4c([nH]c5ccccc45)[C@H]3c3ccccn3)cc(=O)oc2c1 (stereo in doubt) [Compound 22, 7-methyl-4-{2-oxo-2-[1-(pyridin-2-yl)-1H,2H,3H,4H,9H-pyrido[3,4-b]indol-2-yl]ethyl}-2H-chromen-2-one] | 1.4
Cc1cccc([C@H]2c3[nH]c4ccccc4c3CCN2C(=O)C(=O)CCc2ccccc2)n1 (stereo in doubt) [Compound 24, 1-[1-(6-methylpyridin-2-yl)-1H,2H,3H,4H,9H-pyrido[3,4-b]indol-2-yl]-4-phenylbutane-1,2-dione] | 1.6
Cc1cccc([C@H]2c3[nH]c4ccccc4c3CCN2C(=O)CCc2ccccc2)n1 (stereo in doubt) [Compound 27, 1-[1-(6-methylpyridin-2-yl)-1H,2H,3H,4H,9H-pyrido[3,4-b]indol-2-yl]-3-phenylpropan-1-one] | 1.0
CC1=NC2=NC(NCCc3c[nH]c4ccccc34)=N[C@H](c3ccccc3)N2C(O)=C1 (stereo in doubt) [Compound 29, 2-{[2-(1H-indol-3-yl)ethyl]amino}-8-methyl-4-phenyl-4H-pyrimido[1,2-a][1,3,5]triazin-6-ol] | 0.9
CC1=NC2=NC(N3CCC(Cc4ccccc4)CC3)=N[C@H](c3ccccc3)N2C(O)=C1 (stereo in doubt) [Compound 30, 2-(4-benzylpiperidin-1-yl)-8-methyl-4-phenyl-4H-pyrimido[1,2-a][1,3,5]triazin-6-ol] | 0.6
CC1=NC2=NC(N3CCN(c4ccccc4)CC3)=N[C@H](c3ccc(Cl)cc3)N2C(O)=C1 (stereo in doubt) [Compound 31, 4-(4-chlorophenyl)-8-methyl-2-(4-phenylpiperazin-1-yl)-4H-pyrimido[1,2-a][1,3,5]triazin-6-ol] | 1.1
CC1=NC2=NC(N3CCC(Cc4ccccc4)CC3)=N[C@H](c3cccnc3)N2C(O)=C1 (stereo in doubt) [Compound 34, 2-(4-benzylpiperidin-1-yl)-8-methyl-4-(pyridin-3-yl)-4H-pyrimido[1,2-a][1,3,5]triazin-6-ol] | 1.0
O=C([C@H]1CCCO1)N1CCN(c2nnc(-c3ccccc3)c3ccccc23)CC1 (stereo in doubt) [Compound 42, 1-[4-(oxolane-2-carbonyl)piperazin-1-yl]-4-phenylphthalazine] | 0.6
Cc1ccc2nccc(C(=O)N3CCC[C@H](Cn4cc(C(C)(C)N)nn4)C3)c2c1 (stereo in doubt) [Compound 44, 2-[1-({1-[(6-methylquinolin-4-yl)carbonyl]piperidin-3-yl}methyl)-1H-1,2,3-triazol-4-yl]propan-2-amine] | 1.2
O=C(Nc1ccccc1)[C@H]1CCCN(C(=O)c2cc(C3CC3)nc3ccccc23)C1 (stereo in doubt) [Compound 45, 1-(2-cyclopropylquinoline-4-carbonyl)-N-phenylpiperidine-3-carboxamide] | 1.2
O=C(Nc1ccccc1)[C@H]1CCCN(C(=O)c2cc(-c3ccncc3)nc3ccccc23)C1 (stereo in doubt) [Compound 46, N-phenyl-1-[2-(pyridin-4-yl)quinoline-4-carbonyl]piperidine-3-carboxamide] | 1.1
COc1cc(C(=O)N2CCC[C@H](CNS(=O)(=O)c3cccs3)C2)c2ccccc2n1 (stereo in doubt) [Compound 48, N-{[1-(2-methoxyquinoline-4-carbonyl)piperidin-3-yl]methyl}thiophene-2-sulfonamide] | 1.0
Cc1cc(C(=O)N2CCC[C@H](c3ccc(C(=O)O)cc3)C2)c2ccc(F)cc2n1 (stereo in doubt) [Compound 49, 4-[1-(7-fluoro-2-methylquinoline-4-carbonyl)piperidin-3-yl]benzoic acid] | 1.6
